Laboratory results: patent US7803930B2, “Antisense modulation of apolipoprotein B-expression” (Isis Pharmaceuticals, Inc., priority 2002, dated 2010)

Assays:
apolipoprotein B mRNA [1] = assay: LDLr(-/-) mice dose response (Example 44): apolipoprotein B mRNA; assay type: in vivo, mouse; settings: 20 mg/kg, six weeks
Description: LDLr(−/−) mice, purchased from Taconic (Germantown, N.Y.) were used to evaluate antisense oligonucleotides for their potential to lower apolipoprotein B mRNA or protein levels, as well as phenotypic endpoints associated with apolipoprotein B. LDLr(−/−) mice were separated into groups of males and females. LDLr(−/−) mice were dosed intraperitoneally twice a week for six weeks with either 10, 25, or 50 mg/kg of ISIS 147764 (SEQ ID NO: 109) or ISIS 270906 (SEQ ID NO: 856) which is a 4 base mismatch of ISIS 147764, or with saline, or 20 mg/kg of Atorvastatin. At study termination animals were sacrificed and evaluated for several phenotypic markers.

[2] = High fat fed C57BL/6 mice, 6 week timecourse: serum AST and ALT levels; assay type: in vivo, mouse; settings: daily oral dose of 20 mg/kg
Description: Male C57BL/6 mice (n=8) receiving a high fat diet (60% kcal fat) were evaluated over the course of 6 weeks for the effects of ISIS 147764 on liver enzyme (AST and ALT) levels. Increased levels of the liver enzymes ALT and AST indicate toxicity and liver damage. Control animals received saline treatment (50 mg/kg). […] AST and ALT levels were measured at 6 weeks.

[3] = assay type: in vivo, mouse
Description: (§1) Female ApoE knockout mice ranged in age from 5 to 7 weeks and were placed on a normal diet for 2 weeks before study initiation. ApoE knockout mice were then fed ad libitum a 60% fat diet, with 0.15% added cholesterol to induce dyslipidemia and obesity. Control animals were maintained on a high-fat diet with no added cholesterol. […]
(§2) At study termination and forty eight hours after the final injections, animals were sacrificed and evaluated for target mRNA levels in liver by RT-PCR methods verified by Northern Blot analysis, glucose levels, cholesterol and lipid levels by HPLC separation methods and triglyceride and liver enzyme levels (performed by LabCorp Preclinical Services; San Diego, Calif.).
(§3) Data are normalized to saline controls.

apolipoprotein B mRNA [4] = assay: ApoE knockout mice (Example 28): target mRNA levels in liver; assay type: in vivo, mouse; settings: high fat diet, 20 mg/kg daily
Description: as §1, §2, §3

[5] = High fat fed C57BL/6 mice, 6 week timecourse: serum cholesterol, triglyceride, lipoprotein and glucose levels; assay type: in vivo, mouse; settings: for Percent Inhibition HDL / Percent Inhibition LDL / Percent Inhibition VLDL: 20 mg/kg daily oral, negative = increase
Description: Male C57BL/6 mice (n=8) receiving a high fat diet (60% kcal fat) were evaluated over the course of 6 weeks for the effects of treatment with the antisense oligonucleotide, ISIS 147764. Control animals received saline treatment (50 mg/kg). A subset of animals received a daily oral dose (20 mg/kg) atorvastatin calcium (Lipitor®, Pfizer Inc.). All mice, except atorvastatin-treated animals, were dosed intraperitoneally every three days (twice a week), after fasting overnight, with 5, 25, 50 mg/kg ISIS 147764 (SEQ ID No: 109) or saline (50 mg/kg) for six weeks. Serum cholesterol and lipoproteins were analyzed at 0, 2 and 6 week interim timepoints. At study termination, animals were sacrificed 48 hours after the final injections and evaluated for levels of target mRNA levels in liver, cholesterol, lipoprotein, triglyceride, liver enzyme (AST and ALT) and serum glucose levels as well as body, liver, spleen and fat pad weights.
(§4) Male C57BL/6 mice (n=8) receiving a high fat diet (60% kcal fat) were evaluated over the course of 6 weeks for the effects of ISIS 147764 on serum cholesterol and triglyceride levels. Control animals received saline treatment (50 mg/kg). Mice were dosed intraperitoneally every three days (twice a week), after fasting overnight, with 5, 25, 50 mg/kg ISIS 147764 (SEQ ID No: 109) or saline (50 mg/kg) for six weeks.
Values in the table are expressed as percent inhibition and are normalized to the saline control.
In addition to serum cholesterol, at study termination, animals were sacrificed 48 hours after the final injections and evaluated for triglyceride levels.
as §4, with “lipoprotein (VLDL, LDL” for “serum cholesterol”, “HDL)” for “triglyceride”
Values in the table are expressed as percent inhibition and are normalized to the saline control. Negative values indicate an observed increase in lipoprotein levels.
as §4, with “glucose” for “cholesterol and triglyceride”
At study termination, animals were sacrificed 48 hours after the final injections and evaluated for serum glucose levels. […] Mice treated with atorvastatin at a daily oral dose of 20 mg/kg had serum glucose levels of 215 mg/dL.

[6] = High fat fed C57BL/6 mice, 6 week timecourse: body, spleen, liver and fat pad weight; assay type: in vivo, mouse; settings: 20 mg/kg daily, six weeks, vs saline-treated controls
Description: Male C57BL/6 mice (n=8) receiving a high fat diet (60% kcal fat) were evaluated over the course of 6 weeks for the effects of ISIS 147764 on body, spleen, liver and fat pad weight. Control animals received saline treatment (50 mg/kg). […]
At study termination, animals were sacrificed 48 hours after the final injections and body, spleen, liver and fat pad weights were measured. Values are expressed as percent change in body weight or ogan weight compared to the saline-treated control animals. Negative values indicated a decrease in weight.

PTEN = assay: ob/ob mice (Example 50): PTEN levels; assay type: in vivo, mouse; settings: high fat high cholesterol diet, 50 mg/kg i.p. twice a week, six weeks
Description: (§5) Ob/ob mice receiving a high fat, high cholesterol diet (60% kcal fat supplemented with 0.15% cholesterol) were treated with one of several oligonucleotides to evaluate their effect on apolipoprotein B-related phenotypic endpoints in ob/ob mice. After overnight fasting, mice from each group were dosed intraperitoneally twice a week with 50 mg/kg of ISIS 147483 (SEQ ID NO: 79), or 147764 (SEQ ID NO: 109), or the controls ISIS 116847 (SEQ ID NO: 857), or 141923 (SEQ ID NO: 858), or saline for six weeks. At study termination and forty eight hours after the final injections, animals were sacrificed and evaluated for target mRNA levels in liver, cholesterol and triglyceride levels, liver enzyme levels, serum glucose levels, and PTEN levels.

[7] = ob/ob mice (Example 50): cholesterol, lipid, triglyceride, liver enzyme and glucose levels; assay type: in vivo, mouse; settings: high fat high cholesterol diet, 50 mg/kg i.p. twice a week, six weeks
Description: as §5

apolipoprotein B mRNA [8] = assay: ob/ob mice (Example 50): apolipoprotein B mRNA levels in liver; assay type: in vivo, mouse; settings: liver, high fat high cholesterol diet, 50 mg/kg i.p. twice a week, six weeks
Description: as §5

[9] = test system: mouse apolipoprotein B mRNA; assay: Inhibition of mouse apolipoprotein B mRNA levels in primary mouse hepatocytes, real-time PCR; assay type: cell-based
Description: Primary mouse hepatocytes were prepared from CD-1 mice purchased from Charles River Labs (Wilmington, Mass.) and were routinely cultured in Hepatoyte Attachment Media (Gibco) supplemented with 10% Fetal Bovine Serum (Gibco/Life Technologies, Gaithersburg, Md.), 250 nM dexamethasone (Sigma), and 10 nM bovine insulin (Sigma). Cells were seeded into 96-well plates (Falcon-Primaria #3872) at a density of 10000 cells/well for use in RT-PCR analysis.
When cells reached 80% confluency, they were treated with oligonucleotide. For cells grown in 96-well plates, wells were washed once with 200 μL OPTI-MEM™-1 reduced-serum medium (Gibco BRL) and then treated with 130 μL of OPTI-MEM™-1 containing 3.75 μg/mL LIPOFECTIN™ (Gibco BRL) and the desired concentration of oligonucleotide. After 4-7 hours of treatment, the medium was replaced with fresh medium. Cells were harvested 16-24 hours after oligonucleotide treatment.
Quantitation of apolipoprotein B mRNA levels was determined by real-time quantitative PCR using the ABI PRISM™ 7700 Sequence Detection System (PE-Applied Biosystems, Foster City, Calif.) according to manufacturer's instructions. This is a closed-tube, non-gel-based, fluorescence detection system which allows high-throughput quantitation of polymerase chain reaction (PCR) products in real-time. As opposed to standard PCR, in which amplification products are quantitated after the PCR is completed, products in real-time quantitative PCR are quantitated as they accumulate. This is accomplished by including in the PCR reaction an oligonucleotide probe that anneals specifically between the forward and reverse PCR primers, and contains two fluorescent dyes. A reporter dye (e.g., JOE, FAM, or VIC, obtained from either Operon Technologies Inc., Alameda, Calif. or PE-Applied Biosystems, Foster City, Calif.) is attached to the 5′ end of the probe and a quencher dye (e.g., TAMRA, obtained from either Operon Technologies Inc., Alameda, Calif. or PE-Applied Biosystems, Foster City, Calif.) is attached to the 3′ end of the probe. When the probe and dyes are intact, reporter dye emission is quenched by the proximity of the 3′ quencher dye. During amplification, annealing of the probe to the target sequence creates a substrate that can be cleaved by the 5′-exonuclease activity of Taq polymerase. […] With each cycle, additional reporter dye molecules are cleaved from their respective probes, and the fluorescence intensity is monitored at regular intervals by laser optics built into the ABI PRISM™ 7700 Sequence Detection System. In each assay, a series of parallel reactions containing serial dilutions of mRNA from untreated control samples generates a standard curve that is used to quantitate the percent inhibition after antisense oligonucleotide treatment of test samples.
Probes and primers to mouse apolipoprotein B were designed to hybridize to a mouse apolipoprotein B sequence, using published sequence information (GenBank accession number M35186, incorporated herein as SEQ ID NO: 10). For mouse apolipoprotein B the PCR primers were: forward primer: CGTGGGCTCCAGCATTCTA (SEQ ID NO: 11) reverse primer: […] (SEQ ID NO: 12) and the PCR probe was: FAM-[…]-TAMRA SEQ ID NO: 13) where FAM (PE-Applied Biosystems, Foster City, Calif.) is the fluorescent reporter dye) and TAMRA (PE-Applied Biosystems, Foster City, Calif.) is the quencher dye. For mouse GAPDH the PCR primers were: forward primer: […] (SEQ ID NO: 14) reverse primer: […] (SEQ ID NO:15) and the PCR probe was: 5′ JOE-[…]-TAMRA 3′ (SEQ ID NO: 16) where JOE (PE-Applied Biosystems, Foster City, Calif.) is the fluorescent reporter dye) and TAMRA (PE-Applied Biosystems, Foster City, Calif.) is the quencher dye.
In accordance with the present invention, a series of oligonucleotides was designed to target different regions of the mouse apolipoprotein B RNA, using published sequence (GenBank accession number M35186, incorporated herein as SEQ ID NO: 10). […]

[10] = ApoE knockout mice, high fat diet, 20 mg/kg daily

Q: Which results are given for CC(C)c1c(C(=O)Nc2ccccc2)c(-c2ccccc2)c(-c2ccc(F)cc2)n1CC[C@@H](O)C[C@@H](O)CC(=O)O [atorvastatin, atorvastatin calcium, reference compound]?
A: apolipoprotein B mRNA % control (apolipoprotein B mRNA [1]; female LDLr(-/-) mice): 109.0 % control; apolipoprotein B mRNA % control (apolipoprotein B mRNA [1]; male LDLr(-/-) mice): 110.9 % control; AST levels [2]: 85 IU/L; AST levels (printed in the ALT paragraph) [2]: 40 IU/L; Cholesterol Levels [3, 10]: 938 mg/dL; Glucose Levels [3, 10]: 162 mg/dL; Lipoprotein Levels HDL [3, 10]: 42 mg/dL; Lipoprotein Levels LDL [3, 10]: 250 mg/dL; Lipoprotein Levels VLDL [3, 10]: 653 mg/dL; Liver Enzyme Levels ALT ([3]; mouse, in vivo, 20 mg/kg): 76 IU/L; Liver Enzyme Levels AST ([3]; mouse, in vivo, 20 mg/kg): 75 IU/L; mRNA Percent Inhibition (apolipoprotein B mRNA [4]): 10%; Percent Inhibition HDL ([5]; 0 weeks): 0%; Percent Inhibition LDL ([5]; 0 weeks): 0%; Percent Inhibition VLDL ([5]; 0 weeks): 0%; Percent Inhibition HDL ([5]; 2 weeks): 15%; Percent Inhibition LDL ([5]; 2 weeks): 10%; Percent Inhibition VLDL ([5]; 2 weeks): 15%; Percent Inhibition HDL ([5]; 6 weeks): 20%; Percent Inhibition LDL ([5]; 6 weeks): −10%; Percent Inhibition VLDL ([5]; 6 weeks): −5%; serum glucose levels ([5]; daily oral dose of 20 mg/kg): 215 mg/dL; decrease in serum cholesterol ([5]; oral dose of 20 mg/kg, study termination): 20%; Percent Change Fat (fat pad weight) [6]: 7%; Percent Change Liver weight [6]: 15%; Percent Change Spleen weight [6]: 10%; Percent Change Total Body Wt. [6]: 1%

Q: Which “mRNA % control PTEN” value (PTEN) does the source give for “116847 (antisense CTGCTAGCCTCTGGATTTGA; listed as DNA, chemistry not given here) [compound 116847]” here?
A: 20.0 % control

Q: And the Glucose [7]?
A: 135.5 mg/dL

Q: What about the “Lipoproteins CHOL” value [7] of the same compound?
A: 287.5 mg/dL

Q: What about the “Lipoproteins TRIG” value [7] of the same compound?
A: 196.5 mg/dL

Q: And the “Liver Enzymes ALT” value [7]?
A: 607.5 IU/L

Q: What about the “Liver Enzymes AST” value [7] of the same compound?
A: 343.2 IU/L

Q: What about the “mRNA % control ApoB” value (apolipoprotein B mRNA [8]) of the same compound?
A: 77.0 % control

Q: Which “mRNA % control PTEN” value (PTEN) does the source give for “147483 (ATGTCAATGCCACATGTCCA; phosphorothioate, 2'-MOE wings, chemistry not fully specified) [compound 147483]” here?
A: 143.2 % control

Q: What about the Glucose [7] of the same compound?
A: 213.2 mg/dL

Q: What about the “Lipoproteins CHOL” value [7] of the same compound?
A: 250.0 mg/dL

Q: What about the “Lipoproteins TRIG” value [7] of the same compound?
A: 99.8 mg/dL

Q: And the “Liver Enzymes ALT” value [7]?
A: 941.7 IU/L

Q: What about the “Liver Enzymes AST” value [7] of the same compound?
A: 790.2 IU/L

Q: And the “mRNA % control ApoB” value (apolipoprotein B mRNA [8])?
A: 25.2 % control

Q: And the “Percent Inhibition 50 nM” value ([9]; Table 4, 50 nM)?
A: 56%

Q: What about the “Percent Inhibition 150 nM” value ([9]; Table 4, 150 nM) of the same compound?
A: 88%

Q: And the “Percent Inhibition 300 nM” value ([9]; Table 4, 300 nM)?
A: 89%
